Test results reported in patent US12077503B2, “Substituted cyclic amides and their use as herbicides” (FMC CORPORATION, priority 2015, dated 2024).
Read-outs that look alike come from different tables or passages of the source.

Assays:
Type in all cases: in vivo
[1] = test system: blackgrass (Alopecurus myosuroides); experiment: Test A postemergence; conditions: Alopecurus myosuroides, post-emergence, 240 h; for pest or weed control at 125 g/ha: 125 g ai/ha
Outline: (§1)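 In a loam soil and sand blend, planted seeds got a preemergence directed soil spray, and young plants at the one- to two-leaf stage, 2–10 cm high, got a postemergence application; ~10 d greenhouse hold; injury rated visually, 0 = none, 100 = complete control.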

[2] = test system: pigweed (Amaranthus retroflexus); experiment: Test A postemergence; conditions: Amaranthus retroflexus, post-emergence, 240 h, 125 g ai/ha
Outline: as §1

Kochia (Kochia scoparia) [3] = experiment: Test A postemergence; conditions: Bassia scoparia, post-emergence, 240 h; for pest or weed control at 125 g/ha: 125 g ai/ha
Outline: as §1

[4] = test system: barnyardgrass (Echinochloa crus-galli); experiment: Test A postemergence; conditions: Echinochloa crus-galli, post-emergence, 240 h; for pest or weed control at 125 g/ha: 125 g ai/ha
Outline: as §1

[5] = test system: ragweed (common ragweed, Ambrosia elatior); experiment: Test A postemergence; conditions: Ambrosia artemisiifolia, post-emergence, 240 h, 125 g ai/ha
Outline: as §1

[6] = test system: ryegrass, Italian (Italian ryegrass, Lolium multiflorum); experiment: Test A postemergence; conditions: Lolium multiflorum, post-emergence, 240 h, 125 g ai/ha
Outline: as §1

[7] = test system: wheat (Triticum aestivum); experiment: Test A postemergence; conditions: Triticum aestivum, post-emergence, 240 h, 125 g ai/ha
Outline: as §1

[8] = test system: giant foxtail (Setaria faberii); experiment: Test A postemergence; conditions: Setaria faberi, post-emergence, 240 h; for pest or weed control at 125 g/ha: 125 g ai/ha
Outline: as §1

corn (Zea mays) = experiment: Test A postemergence; conditions: Zea mays, post-emergence, 240 h
Outline: as §1

[9] = test system: Galium (catchweed bedstraw, Galium aparine); experiment: Test A postemergence; conditions: Galium, post-emergence, 240 h; for pest or weed control at 125 g/ha: 125 g ai/ha
Outline: as §1

[10] = test system: pigweed (Amaranthus retroflexus); experiment: Test A preemergence; conditions: Amaranthus retroflexus, pre-emergence, 240 h; for pest or weed control at 125 g/ha: 125 g ai/ha; for pest or weed control at 500 g/ha: 500 g ai/ha, visual injury rating about 10 d after treatment, 0 to 100 scale (0 no effect, 100 complete control)
Kochia (Kochia scoparia) [11] = experiment: Test A preemergence; conditions: Bassia scoparia, pre-emergence, 240 h; for pest or weed control at 125 g/ha: 125 g ai/ha; for pest or weed control at 500 g/ha: 500 g ai/ha, visual injury rating about 10 d after treatment, 0 to 100 scale (0 no effect, 100 complete control)
Outline: as §1

[12] = test system: barnyardgrass (Echinochloa crus-galli); experiment: Test A preemergence; conditions: Echinochloa crus-galli, pre-emergence, 240 h; for pest or weed control at 125 g/ha: 125 g ai/ha; for pest or weed control at 500 g/ha: 500 g ai/ha, visual injury rating about 10 d after treatment, 0 to 100 scale (0 no effect, 100 complete control)
Outline: as §1

[13] = test system: ragweed (common ragweed, Ambrosia elatior); experiment: Test A preemergence; conditions: Ambrosia artemisiifolia, pre-emergence, 240 h; for pest or weed control at 500 g/ha: 500 g ai/ha, preemergence, visual injury rating about 10 d after treatment, 0 to 100 scale (0 no effect, 100 complete control), read-out: Ragweed plant response rating
Outline: as §1

[14] = test system: ryegrass, Italian (Italian ryegrass, Lolium multiflorum); experiment: Test A preemergence; conditions: Lolium multiflorum, pre-emergence, 240 h; for pest or weed control at 500 g/ha: 500 g ai/ha, preemergence, visual injury rating about 10 d after treatment, 0 to 100 scale (0 no effect, 100 complete control), read-out: Ryegrass, Italian plant response rating
Outline: as §1

[15] = test system: giant foxtail (Setaria faberii); experiment: Test A preemergence; conditions: Setaria faberi, pre-emergence, 240 h; for pest or weed control at 125 g/ha: 125 g ai/ha; for pest or weed control at 500 g/ha: 500 g ai/ha, visual injury rating about 10 d after treatment, 0 to 100 scale (0 no effect, 100 complete control)
Outline: as §1

[16] = preemergence, read-out: Pigweed plant response rating
[17] = preemergence, read-out: Kochia plant response rating
[18] = preemergence, read-out: Barnyardgrass plant response rating
[19] = preemergence, read-out: Foxtail, Giant plant response rating

Cc1cc([C@H]2CN(C)C(=O)[C@@H]2C(=O)Nc2cccc(F)c2F)ccc1Cl [Compound 929]
40%: pest or weed control at 125 g/ha ([1]; Postemergence, visual injury after approximately 10 d, 0 to 100 scale where 0 is no effect and 100 is complete control, read-out: Plant response rating, Blackgrass) | pest or weed control at 125 g/ha (Kochia (Kochia scoparia) [3]; Postemergence, visual injury after approximately 10 d, 0 to 100 scale where 0 is no effect and 100 is complete control, read-out: Plant response rating, Kochia) | Corn plant response rating (crop injury, 0 = no effect, 100 = complete kill) at 125 g/ha (corn (Zea mays); 125 g ai/ha, Postemergence, visual injury after approximately 10 d, 0 to 100 scale where 0 is no effect and 100 is complete control)
30%: plant injury at 125 g/ha ([7]; Postemergence, visual injury after approximately 10 d, 0 to 100 scale where 0 is no effect and 100 is complete control, read-out: Plant response rating, Wheat) | pest or weed control at 500 g/ha [13]
20%: pest or weed control at 125 g/ha ([2]; Postemergence, visual injury after approximately 10 d, 0 to 100 scale where 0 is no effect and 100 is complete control, read-out: Plant response rating, Pigweed) | pest or weed control at 125 g/ha ([5]; Postemergence, visual injury after approximately 10 d, 0 to 100 scale where 0 is no effect and 100 is complete control, read-out: Plant response rating, Ragweed) | pest or weed control at 125 g/ha ([10]; preemergence, 0 to 100 scale where 0 is no effect and 100 is complete control, read-out: Pigweed plant response rating)
50%: pest or weed control at 125 g/ha ([6]; Postemergence, visual injury after approximately 10 d, 0 to 100 scale where 0 is no effect and 100 is complete control, read-out: Plant response rating, Ryegrass, Italian) | pest or weed control at 125 g/ha ([9]; Postemergence, visual injury after approximately 10 d, 0 to 100 scale where 0 is no effect and 100 is complete control, read-out: Plant response rating, Galium) | pest or weed control at 500 g/ha [10, 16]
90%: pest or weed control at 125 g/ha ([4]; Postemergence, visual injury after approximately 10 d, 0 to 100 scale where 0 is no effect and 100 is complete control, read-out: Plant response rating, Barnyardgrass) | pest or weed control at 125 g/ha ([8]; Postemergence, visual injury after approximately 10 d, 0 to 100 scale where 0 is no effect and 100 is complete control, read-out: Plant response rating, Foxtail, Giant) | pest or weed control at 500 g/ha (Kochia (Kochia scoparia) [11]; [17]) | pest or weed control at 125 g/ha ([12]; preemergence, 0 to 100 scale where 0 is no effect and 100 is complete control, read-out: Barnyardgrass plant response rating) | pest or weed control at 500 g/ha [12, 18] | pest or weed control at 125 g/ha ([15]; preemergence, 0 to 100 scale where 0 is no effect and 100 is complete control, read-out: Foxtail, Giant plant response rating) | pest or weed control at 500 g/ha [15, 19]
70%: pest or weed control at 125 g/ha (Kochia (Kochia scoparia) [11]; preemergence, 0 to 100 scale where 0 is no effect and 100 is complete control, read-out: Kochia plant response rating)
80%: pest or weed control at 500 g/ha [14]

O=C(Nc1ccccc1F)[C@H]1C(=S)NC[C@@H]1c1ccc(C(F)(F)F)cc1 (racemic) [Compound 1047]
50%: pest or weed control at 125 g/ha ([8]; postemergence, visual injury on 0 to 100 scale (0 no effect, 100 complete control), approx. 10 d, read-out: Foxtail, Giant plant response rating) | pest or weed control at 500 g/ha ([9]; 500 g ai/ha, postemergence, visual injury, 0 to 100 scale (0 no effect, 100 complete control), approx. 10 d, read-out: Plant response rating, Galium)
30%: pest or weed control at 125 g/ha ([12]; Preemergence, visual injury rating after approximately 10 d, read-out: Barnyardgrass plant response rating (0 to 100 scale, 0 is no effect, 100 is complete control))
20%: pest or weed control at 500 g/ha (Kochia (Kochia scoparia) [3]; 500 g ai/ha, postemergence, visual injury, 0 to 100 scale (0 no effect, 100 complete control), approx. 10 d, read-out: Plant response rating, Kochia) | pest or weed control at 500 g/ha [10, 16]
80%: pest or weed control at 500 g/ha ([4]; 500 g ai/ha, postemergence, visual injury, 0 to 100 scale (0 no effect, 100 complete control), approx. 10 d, read-out: Plant response rating, Barnyardgrass) | pest or weed control at 500 g/ha ([8]; 500 g ai/ha, postemergence, visual injury, 0 to 100 scale (0 no effect, 100 complete control), approx. 10 d, read-out: Plant response rating, Foxtail, Giant) | pest or weed control at 500 g/ha (Kochia (Kochia scoparia) [11]; [17]) | pest or weed control at 500 g/ha [12, 18] | pest or weed control at 500 g/ha [15, 19]
40%: pest or weed control at 125 g/ha ([4]; postemergence, visual injury on 0 to 100 scale (0 no effect, 100 complete control), approx. 10 d, read-out: Barnyardgrass plant response rating) | pest or weed control at 125 g/ha ([13]; 125 g ai/ha, Preemergence, visual injury rating after approximately 10 d, read-out: Ragweed plant response rating (0 to 100 scale, 0 is no effect, 100 is complete control))
60%: pest or weed control at 125 g/ha (Kochia (Kochia scoparia) [11]; Preemergence, visual injury rating after approximately 10 d, read-out: Kochia plant response rating (0 to 100 scale, 0 is no effect, 100 is complete control)) | pest or weed control at 500 g/ha [13] | pest or weed control at 125 g/ha ([15]; Preemergence, visual injury rating after approximately 10 d, read-out: Foxtail, Giant plant response rating (0 to 100 scale, 0 is no effect, 100 is complete control))
0%: pest or weed control at 125 g/ha ([1]; postemergence, visual injury on 0 to 100 scale (0 no effect, 100 complete control), approx. 10 d, read-out: Blackgrass plant response rating) | pest or weed control at 500 g/ha ([1]; 500 g ai/ha, postemergence, visual injury, 0 to 100 scale (0 no effect, 100 complete control), approx. 10 d, read-out: Plant response rating, Blackgrass) | pest or weed control at 125 g/ha ([2]; postemergence, visual injury on 0 to 100 scale (0 no effect, 100 complete control), approx. 10 d, read-out: Pigweed plant response rating) | pest or weed control at 125 g/ha (Kochia (Kochia scoparia) [3]; postemergence, visual injury on 0 to 100 scale (0 no effect, 100 complete control), approx. 10 d, read-out: Kochia plant response rating) | pest or weed control at 125 g/ha ([5]; postemergence, visual injury on 0 to 100 scale (0 no effect, 100 complete control), approx. 10 d, read-out: Ragweed plant response rating) | pest or weed control at 125 g/ha ([6]; postemergence, visual injury on 0 to 100 scale (0 no effect, 100 complete control), approx. 10 d, read-out: Ryegrass, Italian plant response rating) | plant injury at 125 g/ha ([7]; postemergence, visual injury on 0 to 100 scale (0 no effect, 100 complete control), approx. 10 d, read-out: Wheat plant response rating) | plant injury at 125 g/ha (corn (Zea mays); 125 g ai/ha, postemergence, visual injury on 0 to 100 scale (0 no effect, 100 complete control), approx. 10 d, read-out: Corn plant response rating) | Corn plant response rating (crop injury, 0 = no effect, 100 = complete kill) at 500 g/ha (corn (Zea mays); 500 g ai/ha, postemergence, visual injury, 0 to 100 scale (0 no effect, 100 complete control), approx. 10 d) | pest or weed control at 125 g/ha ([9]; postemergence, visual injury on 0 to 100 scale (0 no effect, 100 complete control), approx. 10 d, read-out: Galium plant response rating) | pest or weed control at 125 g/ha ([10]; Preemergence, visual injury rating after approximately 10 d, read-out: Pigweed plant response rating (0 to 100 scale, 0 is no effect, 100 is complete control)) | pest or weed control at 125 g/ha ([14]; 125 g ai/ha, Preemergence, visual injury rating after approximately 10 d, read-out: Ryegrass, Italian plant response rating (0 to 100 scale, 0 is no effect, 100 is complete control)) | pest or weed control at 500 g/ha [14]
